PubChem BioAssay (NCI)
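Test compounds were applied to cells in 96-well plates for 48 hours at 5 doses. Definition used: TGI = concentration required for complete inhibition of growth.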

Experiments:
Assay in all cases: inhibition of tumour cell growth, NCI panel, 48 h
[1] = test system: SK-MEL-28 melanoma
[2] = test system: MALME-3M melanoma
[3] = test system: MCF7 breast
[4] = test system: U251 CNS
[5] = test system: OVCAR-3 ovarian
[6] = test system: HCT-15 colon
[7] = test system: OVCAR-4 ovarian
[8] = test system: LOX IMVI melanoma
[9] = test system: CAKI-1 renal
[10] = test system: SNB-19 CNS

Row | Compound | TGI [1] | TGI [2] | TGI [3] | TGI [4] | TGI [5] | TGI [6] | TGI [7] | TGI [8] | TGI [9] | TGI [10]
1 | CCOC(=O)c1nc2cc(C(F)(F)F)ccc2nc1Nc1ccc(F)cc1 | > 100 µM | > 100 µM | > 100 µM | > 100 µM | > 100 µM | > 100 µM | 86.1 µM | > 100 µM | > 100 µM | 
2 | C[C@]12CC[C@H](O)CC1=CC[C@@H]1[C@@H]2CC[C@]2(C)c3nc(Cl)ccc3C[C@@H]12 | > 100 µM | > 100 µM | > 100 µM | > 100 µM | > 73.2 µM | > 81.3 µM | > 100 µM | > 100 µM | > 100 µM | > 100 µM
3 | Cc1[nH]c(=O)nc2nc3ccc(Cl)cc3c(NC(C)(CO)CO)c12 | > 100 µM | > 100 µM | > 100 µM | > 100 µM | > 100 µM | > 100 µM | > 100 µM | > 100 µM | > 100 µM | > 95.3 µM
4 | NC(=O)C[C@H](NC(=O)C1(NC(=O)[C@H](Cc2ccc(CP(=O)(O)O)cc2)NC(=O)C(=O)O)CCCCC1)C(=O)NCCCc1cccc2ccccc12 | > 10 µM | > 10 µM | > 10 µM | > 10 µM | > 10 µM | > 10 µM | > 10 µM | > 10 µM | > 10 µM | > 10 µM
5 | C[C@H](CN1CC(=O)NC(=O)C1)N1CC(=O)NC(=O)C1 | > 100 µM | > 100 µM | > 100 µM | > 100 µM | > 100 µM | > 100 µM | > 100 µM | > 100 µM | > 100 µM | > 100 µM
6 | CCOc1cc2c(cc1O)CC[C@@H]1[C@@H]2CC[C@]2(C)C(OS(=O)OC3CC[C@@H]4[C@H]5CCc6cc(O)c(OCC)cc6[C@@H]5CC[C@@]34C)CC[C@@H]12 (stereo partly specified) | 11.7 µM | 13.4 µM | 7.01 µM | 1.4 µM | 0.813 µM | 15.3 µM | > 64.5 µM | > 51.7 µM | 26 µM | 30.4 µM
7 | O=C(Cc1ccccc1)N=Nc1c(O)[nH]c2ccccc12 |  | > 100 µM | > 100 µM | > 100 µM | > 100 µM | > 100 µM | > 100 µM |  |  | > 100 µM
8 | Cc1nc2c(Cl)cc(Cl)cc2c(Cl)c1CCCl | > 100 µM | > 100 µM | > 100 µM | > 100 µM | > 100 µM | > 100 µM |  | > 100 µM | > 100 µM | > 100 µM
9 | Cc1cc(C)c2c(=N)c3ccccc3n(CCCCCCn3c4ccccc4c(=N)c4c(C)cc(C)nc43)c2n1 | 2.64 µM | 2.68 µM |  | 0.387 µM | 3.09 µM | 0.343 µM | 3.01 µM |  | 2.52 µM | 2.11 µM
10 | CC(C)N1CCC2(CC1)NNc1ncccc1-n1cccc12 | > 100 µM | > 100 µM |  | > 100 µM | > 100 µM |  | > 100 µM | > 100 µM | > 100 µM | > 100 µM
11 | COc1cc(/C=C2\N=C(C)N(n3c(-c4ccccc4)nc4ccccc4c3=O)C2=O)cc(OC)c1OC | > 100 µM | > 100 µM | > 100 µM |  |  | > 100 µM |  | > 100 µM | > 100 µM | > 100 µM
12 | Cc1cc2c(cc1-c1cc3c(cc1C)C(C(C)C)=C(O)C(=O)/C3=C\Nc1c(C)n(C)n(-c3ccccc3)c1=O)/C(=C/Nc1c(C)n(C)n(-c3ccccc3)c1=O)C(=O)C(O)=C2C(C)C | > 100 µM | > 100 µM | > 100 µM | > 100 µM | > 100 µM | > 100 µM | > 100 µM |  | > 100 µM | > 100 µM
13 | CCCC(=O)Nc1cc(/C=C/C(=O)N2CC(CCl)c3c2cc([N+](=O)[O-])c2ccccc32)n(C)c1 (stereo unspecified) | > 100 µM |  | > 100 µM | > 100 µM | > 100 µM | > 100 µM | > 100 µM |  | > 100 µM | > 100 µM
14 | CN1CCN(/C(N)=C(\C#N)C(=O)Nc2ccccc2)CC1 | > 100 µM |  | > 100 µM | > 100 µM | > 100 µM | > 100 µM |  | > 100 µM | > 100 µM | > 100 µM
15 | COC(=O)c1c(O)ccc2c1c1c(n2Cc2ccccn2)C(=O)c2ccccc2C1=O | 99.2 µM | 89.8 µM | > 100 µM | > 100 µM | 64.8 µM | > 100 µM |  |  | > 100 µM | > 100 µM
16 | COc1c(-c2cccs2)oc2c(CC(=O)O)cccc2c1=O |  | > 100 µM | > 100 µM | > 100 µM | > 100 µM |  |  |  | > 100 µM | 
17 | CC(=O)Nc1ccc(-c2nnc(SCC(=O)Nc3cccc([N+](=O)[O-])c3)o2)cc1 | 33.3 µM | 23.9 µM |  | 29.3 µM | 40.5 µM | 46.2 µM | 25.3 µM | 23 µM | 55.8 µM | 
18 | CC(C)(C)c1cc(/C=C/C(=O)CC(=O)/C=C/c2cc(C(C)(C)C)c(O)c(C(C)(C)C)c2)cc(C(C)(C)C)c1O | > 50 µM |  | > 50 µM | > 50 µM | > 50 µM | > 50 µM | > 50 µM | > 50 µM |  | > 50 µM
19 | Nc1nn(CC(O)CO)c(=O)s1 (stereo unspecified) | 9.86 µM | > 100 µM |  | > 100 µM | > 100 µM | > 100 µM | > 100 µM | > 100 µM |  | > 100 µM
20 | COc1cc2c(cc1OC(=O)c1cc3ccccc3[nH]1)N=C[C@@H]1CCCN1C2=O | 2.21 µM | 2.24 µM | 13 µM | 3.52 µM | 0.818 µM | > 34.2 µM | 2.15 µM |  | 13.8 µM | 3.04 µM
21 | COc1ccc(/C=N\NC(=O)Nc2cccc3ccccc23)cc1 | > 100 µM | > 100 µM | > 100 µM | 36.5 µM |  | > 100 µM | 43.2 µM | > 100 µM | 35.3 µM | 36.8 µM
22 | O=C(CCc1ccc(O)c(O)c1)NCCc1ccc(O)c(O)c1 | > 100 µM | > 100 µM | 45.4 µM | 31 µM | > 100 µM | > 100 µM | 33.7 µM | > 100 µM |  | > 100 µM
23 | NC(=O)CCC(NC(=O)c1cccc2c(=O)c3ccccc3[nH]c12)C(=O)O (stereo unspecified) | > 100 µM | > 100 µM | > 100 µM | > 100 µM | > 100 µM | > 100 µM | > 100 µM | > 100 µM |  | > 100 µM
